Test results from US9242987B2, “Heterocyclyl pyrazolopyrimidine analogues as JAK inhibitors” (Cellzome Limited, priority 2009, dated 2016).

Experiments:
[1] = biological target: T1, JAK2 (Homo sapiens, UniProt O60674); test: Kinobeads assay, JAK2; assay type: binding; conditions: mixed Molt4/Ramos cell lysate, dot blot detection
T1 construct: endogenous in cells; host or cells: Mixed Molt4/Ramos lysate (1:2)
Procedure: (§1) The compounds of the present invention as described in the previous examples were tested in a Kinobeads™ assay as described for ZAP-70 (WO-A 2007/137867). Briefly, test compounds (at various concentrations) and the affinity matrix with the immobilized aminopyrido-pyrimidine ligand 24 were added to cell lysate aliquots and allowed to bind to the proteins in the lysate sample. After the incubation time the beads with captured proteins were separated from the lysate. Bound proteins were then eluted and the presence of JAK2 and JAK3 was detected and quantified using specific antibodies in a dot blot procedure and the Odyssey infrared detection system. Dose response curves for individual kinases were generated and IC50 values calculated. Kinobeads™ assays for ZAP-70 (WO-A 2007/137867) and for kinase selectivity profiling (WO-A 2006/134056) have been previously described.
(§2) The affinity matrix was washed two times with 15 mL of 1×DP buffer containing 0.2% NP40 (IGEPAL® CA-630, Sigma, #13021) and then resuspended in 1×DP buffer containing 0.2% NP40 (3% beads slurry).
(§3) 5×DP buffer: 250 mM Tris-HCl pH 7.4, 25% Glycerol, 7.5 mM MgCl2, 750 mM NaCl, 5 mM Na3VO4; filter the 5×DP buffer through a 0.22 μm filter and store in aliquots at −80° C. The 5×DP buffer is diluted with H2O to 1×DP buffer containing 1 mM DTT and 25 mM NaF.
(§4) Stock solutions of test compounds were prepared in DMSO. In a 96 well plate 30 μL solution of diluted test compounds at 5 mM in DMSO were prepared. Starting with this solution a 1:3 dilution series (9 steps) was prepared. For control experiments (no test compound) a buffer containing 2% DMSO was used.
(§5) Molt4 cells (ATCC catalogue number CRL-1582) and Ramos cells (ATCC catalogue number CRL-1596) were grown in 1 L Spinner flasks (Integra Biosciences, #182101) in suspension in RPMI 1640 medium (Invitrogen, #21875-034) supplemented with 10% Fetal Bovine Serum (Invitrogen) at a density between 0.15×10^6 and 1.2×10^6 cells/mL. Cells were harvested by centrifugation, washed once with 1×PBS buffer (Invitrogen, #14190-094) and cell pellets were frozen in liquid nitrogen and subsequently stored at −80° C. Cells were homogenized in a Potter S homogenizer in lysis buffer: 50 mM Tris-HCl, 0.8% NP40, 5% glycerol, 150 mM NaCl, 1.5 mM MgCl2, 25 mM NaF, 1 mM sodium vanadate, 1 mM DTT, pH 7.5. One complete EDTA-free tablet (protease inhibitor cocktail, Roche Diagnostics, 1873580) per 25 mL buffer was added. The material was dounced 10 times using a mechanized POTTER S, transferred to 50 mL falcon tubes, incubated for 30 minutes on ice and spun down for 10 minutes at 20,000 g at 4° C. (10,000 rpm in Sorvall SLA600, precooled). The supernatant was transferred to an ultracentrifuge (UZ)-polycarbonate tube (Beckmann, 355654) and spun for 1 hour at 100.000 g at 4° C. (33.500 rpm in Ti50.2, precooled). The supernatant was transferred again to a fresh 50 mL falcon tube, the protein concentration was determined by a Bradford assay (BioRad) and samples containing 50 mg of protein per aliquot were prepared. The samples were immediately used for experiments or frozen in liquid nitrogen and stored frozen at −80° C.
(§6) Cell lysate (approximately 50 mg protein per plate) was thawed in a water bath at room temperature and then stored on ice. To the thawed cell lysate 1×DP 0.8% NP40 buffer containing protease inhibitors (1 tablet for 25 mL buffer; EDTA-free protease inhibitor cocktail; Roche Diagnostics 1873580) was added in order to reach a final protein concentration of 10 mg/mL total protein. The diluted cell lysate was stored on ice. Mixed Molt4/Ramos lysate was prepared by combining one volume of Molt4 lysate and two volumes of Ramos lysate (ratio 1:2).
(§7) To a 96 well filter plate (Multiscreen HTS, BV Filter Plates, Millipore #MSBVN1250) were added per well: 100 μL affinity matrix (3% beads slurry), […], of compound solution, and 50 μL of diluted lysate. […]

[2] = biological target: T2, JAK3 (Homo sapiens, UniProt P52333); test: Kinobeads assay, JAK3; assay type: binding; conditions: mixed Molt4/Ramos cell lysate, dot blot detection
T2 construct: endogenous in cells; host or cells: Mixed Molt4/Ramos lysate (1:2)
T2 sequence (P52333 1-1124): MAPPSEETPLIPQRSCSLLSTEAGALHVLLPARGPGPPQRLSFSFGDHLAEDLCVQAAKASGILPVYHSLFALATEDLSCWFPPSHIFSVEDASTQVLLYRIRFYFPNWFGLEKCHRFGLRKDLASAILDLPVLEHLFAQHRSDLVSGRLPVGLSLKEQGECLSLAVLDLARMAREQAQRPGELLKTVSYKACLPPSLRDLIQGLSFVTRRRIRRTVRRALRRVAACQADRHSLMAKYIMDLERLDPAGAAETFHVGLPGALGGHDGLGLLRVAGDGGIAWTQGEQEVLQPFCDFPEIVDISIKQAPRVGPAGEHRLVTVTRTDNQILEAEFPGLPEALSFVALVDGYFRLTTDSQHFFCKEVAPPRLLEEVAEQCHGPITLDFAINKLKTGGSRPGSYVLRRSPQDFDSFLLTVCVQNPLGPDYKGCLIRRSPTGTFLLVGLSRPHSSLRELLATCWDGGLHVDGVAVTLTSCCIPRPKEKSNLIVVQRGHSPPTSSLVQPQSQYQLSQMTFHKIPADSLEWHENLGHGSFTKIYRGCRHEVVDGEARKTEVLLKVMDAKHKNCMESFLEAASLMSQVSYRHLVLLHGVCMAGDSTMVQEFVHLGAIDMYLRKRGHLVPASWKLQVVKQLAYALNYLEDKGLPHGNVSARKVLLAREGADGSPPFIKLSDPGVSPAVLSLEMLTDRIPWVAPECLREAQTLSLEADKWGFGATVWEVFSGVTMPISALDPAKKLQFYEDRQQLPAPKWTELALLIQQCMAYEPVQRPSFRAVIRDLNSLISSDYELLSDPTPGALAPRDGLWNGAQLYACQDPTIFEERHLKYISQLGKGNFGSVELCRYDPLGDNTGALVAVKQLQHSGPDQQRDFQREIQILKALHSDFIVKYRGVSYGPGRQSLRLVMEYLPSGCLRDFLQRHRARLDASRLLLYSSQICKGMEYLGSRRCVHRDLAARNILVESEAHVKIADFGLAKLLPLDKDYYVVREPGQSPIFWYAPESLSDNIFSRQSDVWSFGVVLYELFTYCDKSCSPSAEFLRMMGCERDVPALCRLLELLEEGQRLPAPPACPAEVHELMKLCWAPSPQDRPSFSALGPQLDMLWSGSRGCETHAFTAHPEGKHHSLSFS
Procedure: as §1, §2, §3, §4, §5, §6, §7

T1 sequence (O60674 whole entry): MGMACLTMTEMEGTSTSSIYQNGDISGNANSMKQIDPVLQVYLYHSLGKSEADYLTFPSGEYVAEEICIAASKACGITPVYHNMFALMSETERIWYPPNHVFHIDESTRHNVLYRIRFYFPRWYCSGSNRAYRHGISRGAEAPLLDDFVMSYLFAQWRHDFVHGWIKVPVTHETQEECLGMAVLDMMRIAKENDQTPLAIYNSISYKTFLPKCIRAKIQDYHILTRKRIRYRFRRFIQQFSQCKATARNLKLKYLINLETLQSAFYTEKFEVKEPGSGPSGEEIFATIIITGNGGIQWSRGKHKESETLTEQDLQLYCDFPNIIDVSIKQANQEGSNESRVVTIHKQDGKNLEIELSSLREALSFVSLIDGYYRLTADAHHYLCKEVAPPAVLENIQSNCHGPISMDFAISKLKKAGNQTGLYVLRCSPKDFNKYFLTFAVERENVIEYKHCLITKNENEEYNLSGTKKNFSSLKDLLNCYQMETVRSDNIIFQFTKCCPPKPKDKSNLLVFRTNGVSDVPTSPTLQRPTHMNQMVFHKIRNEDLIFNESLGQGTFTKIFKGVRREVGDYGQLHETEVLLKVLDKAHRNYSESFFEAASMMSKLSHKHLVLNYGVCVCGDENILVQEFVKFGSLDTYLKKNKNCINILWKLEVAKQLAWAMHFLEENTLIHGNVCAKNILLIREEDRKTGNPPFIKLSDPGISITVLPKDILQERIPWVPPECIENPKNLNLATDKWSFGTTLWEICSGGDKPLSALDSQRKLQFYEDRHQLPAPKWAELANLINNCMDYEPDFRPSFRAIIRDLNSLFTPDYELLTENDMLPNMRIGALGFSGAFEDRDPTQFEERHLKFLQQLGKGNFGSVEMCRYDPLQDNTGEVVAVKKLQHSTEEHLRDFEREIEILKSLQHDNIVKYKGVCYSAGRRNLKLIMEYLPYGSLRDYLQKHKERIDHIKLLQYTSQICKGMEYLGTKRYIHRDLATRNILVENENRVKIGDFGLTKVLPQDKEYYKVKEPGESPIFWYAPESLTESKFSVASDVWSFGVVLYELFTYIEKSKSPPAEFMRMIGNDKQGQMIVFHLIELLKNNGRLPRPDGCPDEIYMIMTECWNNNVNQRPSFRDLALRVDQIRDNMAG

Row | SMILES | IC50 [1] | IC50 [2]
1 | COCCn1cc(Nc2ncc3cnn(Cc4ccccc4C#N)c3n2)c(C)n1 [Example 23, 2-((6-(1-(2-methoxyethyl)-3-methyl-1H-pyrazol-4-ylamino)-1H-pyrazolo[3,4-d]pyrimidin-1-yl)methyl)benzonitrile] | ≥ 10000 nM | 100 to 1000 nM
2 | COc1nn(CC(F)F)cc1Nc1ncc2cnn(Cc3ccccc3C#N)c2n1 [Example 24, 2-((6-(1-(2,2-Difluoroethyl)-3-methoxy-1H-pyrazol-4-ylamino)-1H-pyrazolo[3,4-d]pyrimidin-1-yl)methyl)benzonitrile] | ≥ 10000 nM | < 100 nM
3 | N#Cc1ccccc1Cn1ncc2cnc(Nc3cnn(CCO)c3)nc21 [Example 25, 2-((6-(1-(2-Hydroxyethyl)-1H-pyrazol-4-ylamino)-1H-pyrazolo[3,4-d]pyrimidin-1-yl)methyl)benzonitrile] | 1000 to 10000 nM | < 100 nM
4 | CC(c1ccccc1F)n1ncc2cnc(Nc3cnn(C)c3)nc21 (stereo not shown) [Example 26, 1-(1-(2-Fluorophenyl)ethyl)-N-(1-methyl-1H-pyrazol-4-yl)-1H-pyrazolo[3,4-d]pyrimidin-6-amine] | ≥ 10000 nM | 100 to 1000 nM
5 | Cn1cc(Nc2ncc3cnn(Cc4ccccc4Cl)c3n2)cn1 [Example 27, 1-(2-Chlorobenzyl)-N-(1-methyl-1H-pyrazol-4-yl)-1H-pyrazolo[3,4-d]pyrimidin-6-amine] | 1000 to 10000 nM | < 100 nM
6 | COCCn1cc(Nc2ncc3cnn(Cc4ccccc4F)c3n2)cn1 [Example 28, 1-(2-Fluorobenzyl)-N-(1-(2-methoxyethyl)-1H-pyrazol-4-yl)-1H-pyrazolo[3,4-d]pyrimidin-6-amine] | 1000 to 10000 nM | < 100 nM
7 | Cn1cc(Nc2ncc3cnn(Cc4c(F)cccc4F)c3n2)cn1 [Example 29, 1-(2,6-Difluorobenzyl)-N-(1-methyl-1H-pyrazol-4-yl)-1H-pyrazolo[3,4-d]pyrimidin-6-amine] | 1000 to 10000 nM | < 100 nM
8 | Cn1cc(Nc2ncc3cnn(Cc4cc(F)ccc4F)c3n2)cn1 [Example 30, 1-(2,5-Difluorobenzyl)-N-(1-methyl-1H-pyrazol-4-yl)-1H-pyrazolo[3,4-d]pyrimidin-6-amine] | < 100 nM | < 100 nM
9 | Cn1cc(Nc2ncc3cnn(Cc4cccc(F)c4F)c3n2)cn1 [Example 31, 1-(2,3-Difluorobenzyl)-N-(1-methyl-1H-pyrazol-4-yl)-1H-pyrazolo[3,4-d]pyrimidin-6-amine] | 1000 to 10000 nM | < 100 nM
10 | OCCn1cc(Nc2ncc3cnn(Cc4cc(F)ccc4F)c3n2)cn1 [Example 32, 2-(4-(1-(2,5-Difluorobenzyl)-1H-pyrazolo[3,4-d]pyrimidin-6-ylamino)-1H-pyrazol-1-yl)ethanol] | < 100 nM | < 100 nM
11 | OCCn1cc(Nc2ncc3cnn(Cc4cccc(F)c4F)c3n2)cn1 [Example 33, 2-(4-(1-(2,3-Difluorobenzyl)-1H-pyrazolo[3,4-d]pyrimidin-6-ylamino)-1H-pyrazol-1-yl)ethanol] | 100 to 1000 nM | < 100 nM
12 | OCCn1cc(Nc2ncc3cnn(Cc4ccccc4F)c3n2)cn1 [Example 34, 2-(4-(1-(2-Fluorobenzyl)-1H-pyrazolo[3,4-d]pyrimidin-6-ylamino)-1H-pyrazol-1-yl)ethanol] | 100 to 1000 nM | < 100 nM
13 | Cn1cc(Nc2ncc3cnn(-c4ccc(S(N)(=O)=O)cc4)c3n2)cn1 [Example 35, 4-(6-(1-Methyl-1H-pyrazol-4-ylamino)-1H-pyrazolo[3,4-d]pyrimidin-1-yl)benzenesulfonamide] | 1000 to 10000 nM | < 100 nM
14 | COc1nn(CC(F)F)cc1Nc1ncc2cnn(Cc3ccccc3C(N)=O)c2n1 [Example 36, 2-((6-(1-(2,2-Difluoroethyl)-3-methoxy-1H-pyrazol-4-ylamino)-1H-pyrazolo[3,4-d]pyrimidin-1-yl)methyl)benzamide] | ≥ 10000 nM | 100 to 1000 nM
15 | Cc1c(Nc2ncc3cnn(Cc4ccccc4C#N)c3n2)cnn1C [Example 37, 2-((6-(1,5-Dimethyl-1H-pyrazol-4-ylamino)-1H-pyrazolo[3,4-d]pyrimidin-1-yl)methyl)benzonitrile] | ≥ 10000 nM | 100 to 1000 nM
16 | COc1nn(CC(F)(F)F)cc1Nc1ncc2cnn(Cc3ccccc3C#N)c2n1 [Example 38] | ≥ 10000 nM | 100 to 1000 nM
17 | N#Cc1ccccc1Cn1ncc2cnc(Nc3cnn(CC(F)F)c3)nc21 [Example 39, 2-((6-(1-(2,2-Difluoroethyl)-1H-pyrazol-4-ylamino)-1H-pyrazolo[3,4-d]pyrimidin-1-yl)methyl)benzonitrile] | 1000 to 10000 nM | < 100 nM
18 | CNS(=O)(=O)c1ccc(-n2ncc3cnc(Nc4cnn(C)c4)nc32)cc1 [Example 40, N-Methyl-4-(6-(1-methyl-1H-pyrazol-4-ylamino)-1H-pyrazolo[3,4-d]pyrimidin-1-yl)benzenesulfonamide] | 1000 to 10000 nM | 100 to 1000 nM
19 | Cn1cc(Nc2ncc3cnn(Cc4ccccc4C(=O)O)c3n2)cn1 [Example 41, 2-((6-(1-Methyl-1H-pyrazol-4-ylamino)-1H-pyrazolo[3,4-d]pyrimidin-1-yl)methyl)benzoic acid] | 1000 to 10000 nM | 100 to 1000 nM
20 | NC(=O)c1ccccc1Cn1ncc2cnc(Nc3cnn(CC(F)F)c3)nc21 [Example 42, 2-((6-(1-(2,2-Difluoroethyl)-1H-pyrazol-4-ylamino)-1H-pyrazolo[3,4-d]pyrimidin-1-yl)methyl)benzamide] | 1000 to 10000 nM | < 100 nM
